These results are taken from patent US20240308995A1, “O-GLYCOPROTEIN-2-ACETAMIDO-2-DEOXY-3-D-GLUCOPYRANOSIDASE INHIBITORS” (BIOGEN MA INC., priority 2018, published 2024).

pIC50: −log10 of the molar value. Where only a bound is given, the exact number is not on record here.

In one series the test system is P-gp (MDR1). The experiment in a line: MDR1-MDCK Efflux Ratio Assay. Type of series: in vitro ADME. The note with it: dog, MDCK-MDR1, pH 7.4, MDR1-MDCK cells, 2 hr, pH 7.4; read-out: MDR1-MDCK Efflux Ratio (B-A/A-B). An outline of the steps:
(§1)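 Bidirectional (apical↔basolateral) transport across confluent MDR1-MDCK monolayers in HBSS/10 mM HEPES pH 7.4, receiver buffer with 1% BSA; 2 hr at 37° C, 5% CO2. Donor sampled at 0 and 120 min, receiver at 120 min, quantified by LC-MS/MS in triplicate. Papp, efflux ratio and percent recovery calculated.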

Series [1] is described as follows: Rat Liver Microsome Stability Assay. The note with it: rat liver microsomes, 1 uM compound. Type of series: in vitro ADME. In general terms: Liver microsomes are vesicles of endoplasmic reticulum, rich in cytochrome P450 enzymes.
The target in series [2] is Recombinant full length human OGA enzyme (Homo sapiens (Human), UniProt O60502). Nature of the series: OGA Enzyme Inhibition Biochemical Assay. The note with it: 1 nM OGA, 100 μM 4-MUGlcNAc, pH 6.4. An outline of the steps:
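Full-length recombinant human OGA with fluorogenic 4-MUGlcNAc in McIlvaine buffer pH 6.4, 0.01% BSA; 90 min at room temperature, glycine pH 10 quench, fluorescence Ex 355/Em 460 nm. 10-point, 4-fold dilution from 20 μM; 4-parameter variable-slope fit.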

The target of series [3] is OGA (S400 O-GLCNAC), HEK-293T cells transfected with Tau-V5 (Homo sapiens (Human), UniProt O60502). The experiment in a line: Cellular OGA-Tau MSD Assay. Type of series: cell-based. Particulars: HEK-293T cells, Tau-S400-GlcNAc MSD readout. The method in brief: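 HEK-293T cells transfected with OGA and Tau-V5 plasmids were treated overnight at 37° C with a 10-point, 3-fold titration from 1 uM. Lysates went onto V5-antibody MSD plates to capture Tau, probed with a Tau O-GlcNAc antibody and read by electrochemiluminescence; IC50 from a 4-parameter fit.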
OGA (S400 O-GLCNAC), HEK-293T cells transfected with Tau-V5, sequence (O60502 whole entry): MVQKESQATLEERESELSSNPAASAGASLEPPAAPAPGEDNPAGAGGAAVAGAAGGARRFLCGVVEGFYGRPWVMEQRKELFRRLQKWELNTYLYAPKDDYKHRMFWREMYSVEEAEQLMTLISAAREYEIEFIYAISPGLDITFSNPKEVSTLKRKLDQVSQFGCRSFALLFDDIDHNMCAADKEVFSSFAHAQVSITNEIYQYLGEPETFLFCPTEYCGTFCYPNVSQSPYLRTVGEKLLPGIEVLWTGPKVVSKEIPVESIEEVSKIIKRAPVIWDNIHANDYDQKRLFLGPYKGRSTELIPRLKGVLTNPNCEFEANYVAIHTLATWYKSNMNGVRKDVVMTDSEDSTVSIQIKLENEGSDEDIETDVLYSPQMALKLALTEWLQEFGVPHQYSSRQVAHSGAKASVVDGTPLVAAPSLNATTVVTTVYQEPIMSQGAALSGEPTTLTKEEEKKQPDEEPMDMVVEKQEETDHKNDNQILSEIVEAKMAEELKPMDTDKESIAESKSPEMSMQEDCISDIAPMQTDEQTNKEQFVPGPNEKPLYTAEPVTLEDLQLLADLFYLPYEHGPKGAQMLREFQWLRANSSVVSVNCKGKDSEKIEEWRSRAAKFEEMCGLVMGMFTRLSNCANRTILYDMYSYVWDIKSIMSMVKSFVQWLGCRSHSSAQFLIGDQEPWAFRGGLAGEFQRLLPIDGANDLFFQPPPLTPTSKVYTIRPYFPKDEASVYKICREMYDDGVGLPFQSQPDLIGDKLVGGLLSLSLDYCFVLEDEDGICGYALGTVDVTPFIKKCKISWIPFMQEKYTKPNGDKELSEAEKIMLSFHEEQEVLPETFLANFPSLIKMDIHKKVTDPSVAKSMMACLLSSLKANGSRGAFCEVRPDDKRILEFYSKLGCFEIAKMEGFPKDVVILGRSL

The test system of series [4] is MDR1-MDCK cell monolayers. The experiment in a line: MDR1-MDCK Efflux Ratio Assay. Type of series: in vitro ADME. Particulars: MDR1-MDCK cells, 2 hr, pH 7.4. An outline of the steps: as §1

Usually pIC50 stands for the IC50 on a negative log10 scale, so that one unit is a factor of ten.

Recombinant full length human OGA enzyme, sequence (O60502 whole entry): as above

Turning to `CC(=O)Nc1ncc(CN2C[C@H](Oc3cc(C)nc(C)n3)C[C@@H]2C)s1` [Example 1-128, N-(5-(((2S,4R)-4-((2,6-dimethylpyrimidin-4-yl)oxy)-2-methylpyrrolidin-1-yl)methyl)thiazol-2-yl)acetamide], in the series with P-gp (MDR1), the efflux ratio at 2 h was found to be 26.3. Further, in series [1], the “RLM % Qh (%)” value is listed as 48%. Further, the negative-log IC50 (pIC50) in series [2] was greater than 9.00; in series [3], 9.00.
The corresponding values for `CC(=O)Nc1ncc(CN2C[C@H](Oc3cc(N4CCCC4)ncn3)C[C@@H]2C)s1` [Example 1-129, N-(5-(((2S,4R)-2-methyl-4-((6-(pyrrolidin-1-yl)pyrimidin-4-yl)oxy)pyrrolidin-1-yl)methyl)thiazol-2-yl)acetamide] are 25.5, 65%, greater than 9.00 and 9.00.
The corresponding values for `CC(=O)Nc1ncc(CN2C[C@H](Oc3cc(N4CCOCC4)ncn3)C[C@@H]2C)s1` [Example 1-130, N-(5-(((2S,4R)-2-methyl-4-((6-morpholinopyrimidin-4-yl)oxy)pyrrolidin-1-yl)methyl)thiazol-2-yl)acetamide] are 30.3, 37%, greater than 9.00 and 8.52.
The corresponding values for `CC(=O)Nc1ncc(CN2C[C@H](Oc3cc(N(C)C)ncn3)C[C@@H]2C)s1` [Example 1-131, N-(5-(((2S,4R)-4-((6-(dimethylamino)pyrimidin-4-yl)oxy)-2-methylpyrrolidin-1-yl)methyl)thiazol-2-yl)acetamide] are 17.8, 58%, greater than 9.00 and 9.00.
With `CCN(C)c1cc(O[C@@H]2C[C@H](C)N(Cc3cnc(NC(C)=O)s3)C2)ncn1` [Example 1-132, N-(5-(((2S,4R)-4-((6-(ethyl(methyl)amino)pyrimidin-4-yl)oxy)-2-methylpyrrolidin-1-yl)methyl)thiazol-2-yl)acetamide], the efflux ratio at 2 h in the series with P-gp (MDR1) is 19.7. Besides, the “RLM % Qh (%)” value in series [1] was 76%. The results for the pIC50 in series [2] and in series [3] were greater than 9.00 and 8.70, respectively.
The corresponding values for `CC(=O)Nc1ncc(CN2C[C@H](Oc3cc(N4CCC4)ncn3)C[C@@H]2C)s1` [Example 1-133, N-(5-(((2S,4R)-4-((6-(azetidin-1-yl)pyrimidin-4-yl)oxy)-2-methylpyrrolidin-1-yl)methyl)thiazol-2-yl)acetamide] are 23.6, 43%, greater than 9.00 and 9.00.
The corresponding values for `CC(=O)Nc1ncc(CN2C[C@H](Oc3cc(NC4CCC4)ncn3)C[C@@H]2C)s1` [Example 1-134, N-(5-(((2S,4R)-4-((6-(cyclobutylamino)pyrimidin-4-yl)oxy)-2-methylpyrrolidin-1-yl)methyl)thiazol-2-yl)acetamide] are 53.4, 70%, greater than 9.00 and 9.00.
The corresponding values for `CCNc1cc(O[C@@H]2C[C@H](C)N(Cc3cnc(NC(C)=O)s3)C2)ncn1` [Example 1-135, N-(5-(((2S,4R)-4-((6-(ethylamino)pyrimidin-4-yl)oxy)-2-methylpyrrolidin-1-yl)methyl)thiazol-2-yl)acetamide] are 76.5, 36%, greater than 9.00 and 9.00.
On to `CC(=O)Nc1ncc(CN2C[C@H](Oc3cc(NC(C)C)ncn3)C[C@@H]2C)s1` [Example 1-136, N-(5-(((2S,4R)-4-((6-(isopropylamino)pyrimidin-4-yl)oxy)-2-methylpyrrolidin-1-yl)methyl)thiazol-2-yl)acetamide], for which the efflux ratio at 2 h in the series on P-gp (MDR1) was 32. Besides, in series [1], the “RLM % Qh (%)” value is reported as 24%. Moreover, the pIC50 in series [2] was greater than 9.00; in series [3], 8.70.
Consider `CC(=O)Nc1ncc(CN2C[C@H](Oc3cc(OC4CCCC4)ncn3)C[C@@H]2C)s1` [Example 1-138, N-(5-(((2S,4R)-4-((6-(cyclopentyloxy)pyrimidin-4-yl)oxy)-2-methylpyrrolidin-1-yl)methyl)thiazol-2-yl)acetamide], for which, in the series on P-gp (MDR1), the efflux ratio at 2 h was determined as 2.6. Moreover, the “RLM % Qh (%)” value in series [1] worked out at 87%. Besides, the negative-log IC50 (pIC50) in series [2] was greater than 9.00; in series [3] it was 7.55.
The corresponding values for `CC(=O)Nc1nc(F)c(CN2C[C@H](Oc3cc(OC4COC4)ncn3)C[C@@H]2C)s1` [Example 1-140, N-(4-fluoro-5-(((2S,4R)-2-methyl-4-((6-(oxetan-3-yloxy)pyrimidin-4-yl)oxy)pyrrolidin-1-yl)methyl)thiazol-2-yl)acetamide] are 8.4, 43%, greater than 9.00 and 8.40.
The corresponding values for `CC(=O)Nc1nc(F)c(CN2C[C@H](Oc3cnc(N4CCOCC4)cn3)C[C@@H]2C)s1` [Example 1-142, N-(4-fluoro-5-(((2S,4R)-2-methyl-4-((5-morpholinopyrazin-2-yl)oxy)pyrrolidin-1-yl)methyl)thiazol-2-yl)acetamide] are 8.3, 59%, greater than 9.00 and 8.70.
The corresponding values for `CC(=O)Nc1nc(F)c(CN2C[C@H](Oc3cc(N4CCOCC4)ccn3)C[C@@H]2C)s1` [Example 1-143, N-(4-fluoro-5-(((2S,4R)-2-methyl-4-((4-morpholinopyridin-2-yl)oxy)pyrrolidin-1-yl)methyl)thiazol-2-yl)acetamide] are 25.6, 75%, greater than 9.00 and 8.40.
`[2H][C@]1(Oc2cc(OC)ncn2)C[C@H](C)N(Cc2cnc(NC(C)=O)s2)C1` [Example 1-164, N-(5-(((2S,4S)-4-((6-methoxypyrimidin-4-yl)oxy)-2-methylpyrrolidin-1-yl-4-d)methyl)thiazol-2-yl)acetamide]: in the series on P-gp (MDR1), the efflux ratio at 2 h was 3.8. The “RLM % Qh (%)” value in series [1] was 49%. Also, the pIC50 is 8.01 in series [2] and 7.46 in series [3].
Turning to “N-(4-fluoro-5-(((2S,4R)-4-((6-methoxypyrimidin-4-yl-4,5,6-^13C3)oxy)-2 methylpyrrolidin-1-yl)methyl)thiazol-2-yl)acetamide [Example 1-153]”, the “MDR1-MDCK Efflux Ratio (B-A/A-B)” value in series [4] worked out at 2.3. For the same compound, in series [1], the “RLM % Qh (%)” value amounted to 39%. Besides, the pIC50 in series [2] was greater than 9.00; in series [3] it was 9.00.
